# Results from patent publication US20250388593A1 (MITSUBISHI TANABE PHARMA CORPORATION, priority 2023, published 2025).
# Molecular target: CRBN truncate (318-426) (Homo sapiens (Human), UniProt Q96SW2)
# Experiment: Measurement of molecular interactions using surface plasmon resonance (SPR), Biacore T200
# Assay type: binding
# Conditions: 25° C., immobilized CRBN truncate, upper limit of measurement 200 μM
# How it was run: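 Compound injections used 60 s association and 120 s dissociation in HEPES pH 7.5 buffer (150 mM NaCl, 1 mM TCEP, 0.005% Tween 20, 2% DMSO). The ligand was CRBN truncate 318-426 bearing a C-terminal Avi-tag, immobilised via streptavidin on an SA sensor chip.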
# Sequence of CRBN truncate (318-426) (Q96SW2 318-426): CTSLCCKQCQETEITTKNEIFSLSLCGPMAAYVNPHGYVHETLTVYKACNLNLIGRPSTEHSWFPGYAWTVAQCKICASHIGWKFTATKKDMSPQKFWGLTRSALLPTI
row,SMILES,Kd
1,"Cn1nc(N2CCCC(=O)NC2=O)c2ccc(CCC(=O)OC(C)(C)C)cc21 [Example 291, tert-Butyl 3-[3-(2,4-dioxo-1,3-diazepan-1-yl)-1-methylindazol-6-yl]propanoate]",50 to 100 µM
2,"CC1(N2CCCC(=O)NC2=O)C(=O)N(CC(=O)O)c2ccccc21 (centres unmarked) [Example 292, 2-[3-(2,4-dioxo-1,3-diazepan-1-yl)-3-methyl-2-oxoindol-1-yl]acetic acid]",≥ 100 µM
3,"Cc1ccc(NC(=O)Nc2ccc3nc(N4CCC5(CCCC(=O)NC5=O)C4)sc3c2)cc1Cl (centres unmarked) [Example 296, 1-(3-Chloro-4-methylphenyl)-3-[2-(6,8-dioxo-2,7-diazaspiro [4.6]undecan-2-yl)-1,3-benzothiazol-6-yl]urea]",≥ 100 µM
4,"Nc1ccc(N2CCC(N3CCCC(=O)NC3=O)C2=O)cc1 (centres unmarked) [Example 297, 1-[1-(4-Aminophenyl)-2-oxopyrrolidin-3-yl]-1,3-diazepane-2,4-dione]",≥ 100 µM
5,"CC(C)(C)OC(=O)NCCCCCCCNc1ccc2nc(N3CCCC(=O)NC3=O)sc2c1 [Example 303, tert-Butyl N-[7-[[2-(2,4-dioxo-1,3-diazepan-1-yl)-1,3-benzothiazol-6-yl]amino]heptyl]carbamate]",≥ 100 µM
6,CC(C)(C)[Si](C)(C)OC1c2cccc(Br)c2CC1N1CC=CC(=O)NC1=O (centres unmarked) [Example 307],≥ 100 µM
7,"Cc1sc2c(c1C)C(c1ccc(Cl)cc1)=N[C@@H](CC(=O)NCCCCCCCCN1CC3(CC(=O)N(C4CCC(=O)NC4=O)C3=O)C1)c1nnc(C)n1-2 (stereo partly drawn) [Example 309, 2-[(9S)-7-(4-chlorophenyl)-4,5,13-trimethyl-3-thia-1,8,11,12-tetraazatricyclo[8.3.0.02,6]trideca-2(6),4,7,10,12-pentaen-9-yl]-N-[8-[6-(2,6-dioxopiperidin-3-yl)-5,7-dioxo-2,6-diazaspiro[3.4]octan-2-yl]octyl]acetamide]",≥ 100 µM
8,"Cc1sc2c(c1C)C(c1ccc(Cl)cc1)=N[C@@H](CC(=O)NCCCCCCCc1cn(C3CCCC(=O)NC3=O)nn1)c1nnc(C)n1-2 (stereo partly drawn) [Example 310, 2-[(9S)-7-(4-chlorophenyl)-4,5,13-trimethyl-3-thia-1,8,11,12-tetraazatricyclo[8.3.0.02,6]trideca-2(6),4,7,10,12-pentaen-9-yl]-N-[7-[1-(2,7-dioxoazepan-3-yl)triazol-4-yl]heptyl]acetamide]",≥ 100 µM
9,"Cc1sc2c(c1C)C(c1ccc(Cl)cc1)=N[C@@H](CC(=O)NCCCCCCc1ccc(S(=O)(=O)N(C)C3CCCC(=O)NC3=O)cc1)c1nnc(C)n1-2 (stereo partly drawn) [Example 311, 2-[(9S)-7-(4-chlorophenyl)-4,5,13-trimethyl-3-thia-1,8,11,12-tetraazatricyclo[8.3.0.02,6]trideca-2(6),4,7,10,12-pentaen-9-yl]-N-[6-[4-[(2,7-dioxoazepan-3-yl)-methylsulfamoyl]phenyl]hexyl]acetamide]",< 50 µM
10,"Cc1sc2c(c1C)C(c1ccc(Cl)cc1)=N[C@@H](CC(=O)NCCCCCCCNc1ccc3nc(N4CCCC(=O)NC4=O)sc3c1)c1nnc(C)n1-2 [Example 312, 2-[(9S)-7-(4-chlorophenyl)-4,5,13-trimethyl-3-thia-1,8,11,12-tetraazatricyclo[8.3.0.02,6]trideca-2(6),4,7,10,12-pentaen-9-yl]-N-[7-[[2-(2,4-dioxo-1,3-diazepan-1-yl)-1,3-benzothiazol-6-yl]amino]heptyl]acetamide]",< 50 µM
11,"Cc1sc2c(c1C)C(c1ccc(Cl)cc1)=N[C@@H](CC(=O)NCCCCCCCNc1ccc(N3CCC4(CCCC(=O)NC4=O)CC3=O)cc1)c1nnc(C)n1-2 (stereo partly drawn) [Example 314, 2-[(9S)-7-(4-chlorophenyl)-4,5,13-trimethyl-3-thia-1,8,11,12-tetraazatricyclo[8.3.0.02,6]trideca-2(6),4,7,10,12-pentaen-9-yl]-N-[7-[4-(4,7,9-trioxo-3,8-diazaspiro[5.6]dodecan-3-yl)anilino]heptyl]acetamide]",< 50 µM
12,"Cc1sc2c(c1C)C(c1ccc(Cl)cc1)=N[C@@H](CC(=O)NCCCCCCCCOc1ccc(C#N)c(N3CCC4(CCCC(=O)NC4=O)C3)c1)c1nnc(C)n1-2 (stereo partly drawn) [Example 320, 2-[(9S)-7-(4-chlorophenyl)-4,5,13-trimethyl-3-thia-1,8,11,12-tetraazatricyclo[8.3.0.02,6]trideca-2(6),4,7,10,12-pentaen-9-yl]-N-[8-[4-cyano-3-(6,8-dioxo-2,7-diazaspiro[4.6]undecan-2-yl)phenoxy]octyl]acetamide]",< 50 µM
13,"Cc1sc2c(c1C)C(c1ccc(Cl)cc1)=N[C@@H](CC(=O)NCCCCCOc1ccc3nc(N4CC5(CC(=O)N(C6CCC(=O)NC6=O)C5=O)C4)sc3c1)c1nnc(C)n1-2 (stereo partly drawn) [Example 321, 2-[(9S)-7-(4-chlorophenyl)-4,5,13-trimethyl-3-thia-1,8,11,12-tetraazatricyclo[8.3.0.02,6]trideca-2(6),4,7,10,12-pentaen-9-yl]-N-[5-[[2-[6-(2,6-dioxopiperidin-3-yl)-5,7-dioxo-2,6-diazaspiro[3.4]octan-2-yl]-1,3-benzothiazol-6-yl]oxy]pentyl]acetamide]",< 50 µM
14,"Cc1sc2c(c1C)C(c1ccc(Cl)cc1)=N[C@@H](CC(=O)NCCCCCOc1ccc3nc(N4CCC5(CCCC(=O)NC5=O)C4)sc3c1)c1nnc(C)n1-2 (stereo partly drawn) [Example 322, 2-[(9S)-7-(4-chlorophenyl)-4,5,13-trimethyl-3-thia-1,8,11,12-tetraazatricyclo[8.3.0.02,6]trideca-2(6),4,7,10,12-pentaen-9-yl]-N-[5-[[2-(6,8-dioxo-2,7-diazaspiro[4.6]undecan-2-yl)-1,3-benzothiazol-6-yl]oxy]pentyl]acetamide]",< 50 µM

# More lines, now with the values ahead:
row,Kd,SMILES
1,< 50 µM,"CN1C(=O)C(C)(N2C=CCC(=O)NC2=O)c2cccc(/C=C/C(=O)OC(C)(C)C)c21 (centres unmarked) [Example 289, tert-Butyl (E)-3-[3-(2,4-dioxo-5H-1,3-diazepin-1-yl)-1,3-dimethyl-2-oxoindolin-7-yl]prop-2-enoate]"
2,< 50 µM,"CC(C)(C)OC(=O)CCCCCNc1ccc(C(=O)N2CCC3(CCCC(=O)NC3=O)C2)cc1 (centres unmarked) [Example 300, tert-Butyl 6-[4-(6,8-dioxo-2,7-diazaspiro[4.6]undecane-2-carbonyl)anilino]hexanoate]"
3,≥ 100 µM,"Cc1sc2c(c1C)C(c1ccc(Cl)cc1)=N[C@@H](CC(=O)NCCCCCCc1cccc(C(=O)N3CCC4(CCCC(=O)NC4=O)C3)c1)c1nnc(C)n1-2 (stereo partly drawn) [Example 308, 2-[(9S)-7-(4-chlorophenyl)-4,5,13-trimethyl-3-thia-1,8,11,12-tetraazatricyclo[8.3.0.02,6]trideca-2(6),4,7,10,12-pentaen-9-yl]-N-[6-[3-(6,8-dioxo-2,7-diazaspiro[4.6]undecane-2-carbonyl)phenyl]hexyl]acetamide]"
4,< 50 µM,"Cc1sc2c(c1C)C(c1ccc(Cl)cc1)=N[C@@H](CC(=O)NCCCCCCCNc1ccc(N3CCC(N4CCCC(=O)NC4=O)C3=O)cc1)c1nnc(C)n1-2 (stereo partly drawn) [Example 313, 2-[(9S)-7-(4-chlorophenyl)-4,5,13-trimethyl-3-thia-1,8,11,12-tetraazatricyclo[8.3.0.02,6]trideca-2(6),4,7,10,12-pentaen-9-yl]-N-[7-[4-[3-(2,4-dioxo-1,3-diazepan-1-yl)-2-oxopyrrolidin-1-yl]anilino]heptyl]acetamide]"
5,< 50 µM,"Cc1sc2c(c1C)C(c1ccc(Cl)cc1)=N[C@@H](CC(=O)NCCCNc1nccc(N3CC4(CC(=O)N(C5CCC(=O)NC5=O)C4=O)C3)n1)c1nnc(C)n1-2 (stereo partly drawn) [Example 315, 2-[(9S)-7-(4-chlorophenyl)-4,5,13-trimethyl-3-thia-1,8,11,12-tetraazatricyclo[8.3.0.02,6]trideca-2(6),4,7,10,12-pentaen-9-yl]-N-[3-[[4-[6-(2,6-dioxopiperidin-3-yl)-5,7-dioxo-2,6-diazaspiro[3.4]octan-2-yl]pyrimidin-2-yl]amino]propyl]acetamide]"
6,< 50 µM,"Cc1sc2c(c1C)C(c1ccc(Cl)cc1)=N[C@@H](CC(=O)NCCCCCCc1ccc(-c3cn(C4CCCC(=O)NC4=O)nn3)cc1)c1nnc(C)n1-2 (stereo partly drawn) [Example 316, 2-[(9S)-7-(4-chlorophenyl)-4,5,13-trimethyl-3-thia-1,8,11,12-tetraazatricyclo[8.3.0.02,6]trideca-2(6),4,7,10,12-pentaen-9-yl]-N-[6-[4-[1-(2,7-dioxoazepan-3-yl)triazol-4-yl]phenyl]hexyl]acetamide]"
7,< 50 µM,"Cc1sc2c(c1C)C(c1ccc(Cl)cc1)=N[C@@H](CC(=O)NCCc1ccc(S(=O)(=O)N3CC4(CC(=O)N(C5CCC(=O)NC5=O)C4=O)C3)cc1)c1nnc(C)n1-2 (stereo partly drawn) [Example 317, 2-[(9S)-7-(4-chlorophenyl)-4,5,13-trimethyl-3-thia-1,8,11,12-tetraazatricyclo[8.3.0.02,6]trideca-2(6),4,7,10,12-pentaen-9-yl]-N-[2-[4-[[6-(2,6-dioxopiperidin-3-yl)-5,7-dioxo-2,6-diazaspiro[3.4]octan-2-yl]sulfonyl]phenyl]ethyl]acetamide]"
8,< 50 µM,"Cc1sc2c(c1C)C(c1ccc(Cl)cc1)=N[C@@H](CC(=O)NCCCCCCCCn1ccc3c(N4CC5(CC(=O)N(C6CCC(=O)NC6=O)C5=O)C4)ncnc31)c1nnc(C)n1-2 (stereo partly drawn) [Example 318, 2-[(9S)-7-(4-chlorophenyl)-4,5,13-trimethyl-3-thia-1,8,11,12-tetraazatricyclo[8.3.0.02,6]trideca-2(6),4,7,10,12-pentaen-9-yl]-N-[8-[4-[6-(2,6-dioxopiperidin-3-yl)-5,7-dioxo-2,6-diazaspiro[3.4]octan-2-yl]pyrrolo[2,3-d]pyrimidin-7-yl]octyl]acetamide]"
9,< 50 µM,"Cc1sc2c(c1C)C(c1ccc(Cl)cc1)=N[C@@H](CC(=O)NCCCCCCCCn1ccc3c(N4CCC5(CCCC(=O)NC5=O)C4)ncnc31)c1nnc(C)n1-2 (stereo partly drawn) [Example 319, 2-[(9S)-7-(4-chlorophenyl)-4,5,13-trimethyl-3-thia-1,8,11,12-tetraazatricyclo[8.3.0.02,6]trideca-2(6),4,7,10,12-pentaen-9-yl]-N-[8-[4-(6,8-dioxo-2,7-diazaspiro[4.6]undecan-2-yl)pyrrolo[2,3-d]pyrimidin-7-yl]octyl]acetamide]"
